The supplement of paper PMC10307832

Legend:
Experiment in all cases: relative viability (nuclei count vs DMSO), 5 days (fraction); higher = more cells survive
IU1-47 + Linsitinib = compound: CC1=CC(=C(N1C2=CC=C(C=C2)Cl)C)C(=O)CN3CCCCC3 [IU1-47] + C[C@]1(O)C[C@@H](c2nc(-c3ccc4ccc(-c5ccccc5)nc4c3)c3c(N)nccn32)C1 [Linsitinib] (partner 1 µM)
Outline: (§1)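 Dosing by pin tool came one day after lung cancer cell lines were seeded in 1536-well plates, using either one drug or a fixed anchor-drug dose plus five library-drug doses (not always all listed) in √10 steps. After 5 days, nuclei were counted on 4× images. Relative viability is treated-well nuclei count divided by vehicle-well nuclei count, and values are medians of duplicate plates.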

IU1-47 + Bortezomib = compound: CC1=CC(=C(N1C2=CC=C(C=C2)Cl)C)C(=O)CN3CCCCC3 [IU1-47] + CC(C)C[C@H](NC(=O)[C@H](Cc1ccccc1)NC(=O)c1cnccn1)B(O)O [Bortezomib] (partner 0.002 µM)
Outline: as §1

FG-4592 + Palbociclib = compound: Cc1nc(C(=O)NCC(=O)O)c(O)c2ccc(Oc3ccccc3)cc12 [FG-4592] + CC(=O)c1c(C)c2cnc(Nc3ccc(N4CCNCC4)cn3)nc2n(C2CCCC2)c1=O [Palbociclib] (partner 0.5 µM)
Outline: as §1

FG-4592 + Dasatinib = compound: Cc1nc(C(=O)NCC(=O)O)c(O)c2ccc(Oc3ccccc3)cc12 [FG-4592] + Cc1nc(Nc2ncc(C(=O)Nc3c(C)cccc3Cl)s2)cc(N2CCN(CCO)CC2)n1 [Dasatinib] (partner 0.075 µM)
Outline: as §1

Cell Line	relative viability (IU1-47 + Linsitinib; first compound 0.08 µM)	relative viability (IU1-47 + Linsitinib; first compound 0.253 µM)	relative viability (IU1-47 + Linsitinib; first compound 0.8 µM)	relative viability (IU1-47 + Linsitinib; first compound 8 µM)	relative viability (IU1-47 + Bortezomib; first compound 0.08 µM)	relative viability (IU1-47 + Bortezomib; first compound 0.253 µM)	relative viability (IU1-47 + Bortezomib; first compound 0.8 µM)	relative viability (IU1-47 + Bortezomib; first compound 8 µM)	relative viability (FG-4592 + Palbociclib; first compound 0.08 µM)	relative viability (FG-4592 + Palbociclib; first compound 0.253 µM)	relative viability (FG-4592 + Palbociclib; first compound 0.8 µM)	relative viability (FG-4592 + Palbociclib; first compound 2.53 µM)	relative viability (FG-4592 + Palbociclib; first compound 8 µM)	relative viability (FG-4592 + Dasatinib; first compound 0.08 µM)	relative viability (FG-4592 + Dasatinib; first compound 0.253 µM)	relative viability (FG-4592 + Dasatinib; first compound 0.8 µM)	relative viability (FG-4592 + Dasatinib; first compound 2.53 µM)	relative viability (FG-4592 + Dasatinib; first compound 8 µM)	relative viability (IU1-47 + Linsitinib; first compound 2.53 µM)	relative viability (IU1-47 + Bortezomib; first compound 2.53 µM)
201T	1.05	1.02	1.06	1.11	1.1	1.06	1.14	1.05	0.349	0.362	0.341	0.36	0.341	0.549	0.566	0.616	0.569	0.646		
A549	0.548	0.691	0.608	0.553																
A-427	1.13	1.11	1.19	1.21	1.01	0.968	1.06	0.841	0.502	0.489	0.562	0.553	0.591	0.649	0.611	0.741	0.725	0.717		
ABC-1	0.887	0.768	0.986	0.777	0.327	0.281	0.256	0.312	0.718	0.503		0.537	0.437	0.532	0.463	0.48	0.59	0.463		
BEN	1.02	0.934	1.08	0.863	0.755	0.906	1.07	0.641	0.433	0.44	0.463	0.454	0.475	0.323	0.348	0.262	0.365	0.305	0.915	0.848
CAL-12T	0.82	0.828	0.805	0.832	1.05	0.946	0.945	0.802	0.554	0.339	0.386	0.336	0.442	0.378	0.424	0.406	0.361	0.365	0.887	0.972
COR-L23	0.943	1	0.943	0.982	1.12	1.1	1.21	1.08	0.274	0.28	0.258	0.274	0.234	0.467	0.47	0.504	0.446	0.409	0.899	0.932
COR-L 105	1.02	0.875	1.08	0.89	1.23	1.01	0.851	0.708	0.419	0.433	0.324	0.34	0.418	0.309	0.306	0.294	0.258	0.286	1.03	0.899
Calu-6	1.09	0.918	1.02	0.918	1.2	1.02	0.957	0.998											0.986	0.96
ChaGo-K-1					0.953	0.971	0.952	0.682	0.9	0.878	1.01	0.914	0.958	0.584	0.577	0.516	0.542	0.592		1.27
EBC-1	0.664	0.888	0.925	0.881	0.516	0.528	0.535	0.542											0.964	0.715
EKVX	1.19	1.18	0.943	0.861	1.18	1.11	1.18	0.985	0.358	0.398	0.355	0.401	0.29	0.629	0.555	0.53	0.486	0.495	1.1	1.13
EMC-BAC-2	0.857	0.829	0.841	0.774	1.09	1.07	1.04	1.04	0.51	0.529	0.467	0.503	0.47	0.374	0.361	0.274	0.311	0.296	0.864	1.15
EPLC-272H	1.24	1.27	1.4	1.16	1.05	0.943	1.04	0.891	0.323	0.289	0.327	0.378	0.283	0.389	0.302	0.251	0.412	0.334		
H3255	1.16	1.17	0.957	0.914	1.15	1.12	0.766	0.619	0.326	0.293	0.299	0.317	0.304	0.361	0.418	0.417	0.404	0.48	0.905	0.793
HARA	1.19	1.13	1.08	0.678	1.19	1.21	1.1	0.971	0.276	0.191	0.261	0.286	0.25	0.272	0.208	0.266	0.24	0.234	0.931	1.17
